Among the data in paper doi:10.1101/2022.09.09.507370v4 (biorxiv, 2022) are IC50 values, retold here.

SMILES strings stand for the structures.

Among the test systems are Dyn1-His6; Dyn2-His6; Dyn3-His6.
Holding throughout (assay type): biochemical
Details in all cases: PS-liposome-stimulated (5.0 μM PS-liposomes), 20 nM enzyme, GTP, pH 7.4

As a reminder, the IC50 is the midpoint of a concentration-inhibition curve. For `CCCCCCCCCCCCCC[N+](C)(C)C` [MiTMAB], the IC50 was determined as 8.1 ± 3.7 µM in the experiment on Dyn1-His6, 9.2 ± 2.5 µM in the experiment with Dyn2-His6 and 7.8 ± 3 µM in the experiment on Dyn3-His6.
